Assay results taken from paper PMC2893389 (Biochemistry, 2010).
Several values for one entry are separate records, joined by “and”; a condition that tells them apart may be missing. Equal values may be shown once. Read-outs that look alike come from different tables or passages of the source. Each block holds one molecule with its values, some of them ahead of it.

Legend:
[1] = target: T1, WT rat cPEPCK (Rattus norvegicus, UniProt P07379); assay: Inhibitor assays with substrate analogues
T1 sequence (P07379 1-622): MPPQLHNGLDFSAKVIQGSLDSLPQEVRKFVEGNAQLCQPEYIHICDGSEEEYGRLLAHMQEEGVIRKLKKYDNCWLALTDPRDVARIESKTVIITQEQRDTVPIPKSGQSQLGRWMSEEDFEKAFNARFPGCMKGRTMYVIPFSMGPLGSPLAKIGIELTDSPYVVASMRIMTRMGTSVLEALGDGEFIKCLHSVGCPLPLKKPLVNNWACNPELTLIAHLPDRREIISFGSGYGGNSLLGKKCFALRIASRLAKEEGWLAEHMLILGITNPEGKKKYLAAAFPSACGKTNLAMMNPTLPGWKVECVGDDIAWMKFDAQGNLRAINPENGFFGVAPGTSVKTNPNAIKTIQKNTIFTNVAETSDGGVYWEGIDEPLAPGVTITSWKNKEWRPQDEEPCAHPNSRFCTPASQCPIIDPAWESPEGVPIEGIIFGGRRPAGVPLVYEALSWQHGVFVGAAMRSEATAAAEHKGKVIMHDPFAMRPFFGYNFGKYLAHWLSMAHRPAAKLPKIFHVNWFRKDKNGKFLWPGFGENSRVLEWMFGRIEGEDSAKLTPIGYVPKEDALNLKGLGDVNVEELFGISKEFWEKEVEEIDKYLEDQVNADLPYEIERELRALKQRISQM

[2] = target: T2, A467G PEPCK (rat cPEPCK mutant) (Rattus norvegicus, UniProt P07379, A467G); assay: Inhibitor assays with substrate analogues; conditions: for change in affinity, A467G vs WT: from Ki values of the inhibition experiments
T2 sequence (P07379 1-622 A467G): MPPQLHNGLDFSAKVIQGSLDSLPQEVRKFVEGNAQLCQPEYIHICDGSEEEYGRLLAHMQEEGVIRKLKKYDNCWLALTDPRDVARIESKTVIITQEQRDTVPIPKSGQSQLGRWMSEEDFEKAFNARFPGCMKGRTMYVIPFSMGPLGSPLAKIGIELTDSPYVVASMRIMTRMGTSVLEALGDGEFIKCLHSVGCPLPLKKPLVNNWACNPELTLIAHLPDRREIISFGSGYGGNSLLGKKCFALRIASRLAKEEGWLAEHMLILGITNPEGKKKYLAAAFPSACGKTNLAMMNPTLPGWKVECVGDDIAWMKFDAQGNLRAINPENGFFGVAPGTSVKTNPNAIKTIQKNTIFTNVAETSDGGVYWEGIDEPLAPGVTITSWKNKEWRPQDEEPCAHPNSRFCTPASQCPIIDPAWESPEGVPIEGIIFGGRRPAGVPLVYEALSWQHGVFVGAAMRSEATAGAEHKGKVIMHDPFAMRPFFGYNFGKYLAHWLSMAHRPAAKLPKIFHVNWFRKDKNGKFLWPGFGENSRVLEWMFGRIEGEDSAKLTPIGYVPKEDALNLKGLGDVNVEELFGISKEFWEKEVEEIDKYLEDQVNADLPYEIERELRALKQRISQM

[3] = target: T2, A467G PEPCK (rat cPEPCK mutant); assay: Assay B: PEP+GDP+CO2→OAA+GTP, coupled MDH assay; format: biochemical
[4] = target: T1, WT rat cPEPCK; assay: Assay B: PEP+GDP+CO2→OAA+GTP, coupled MDH assay; format: biochemical; conditions: Wild-type, 25 °C
[5] = target: PEPCK; conditions: pyruvate only weakly associates with PEPCK; cited from earlier work
[6] = target: T1, WT rat cPEPCK; assay: Assay C: OAA+GTP→pyruvate+GTP+CO2; format: biochemical; conditions: WT PEPCK; GTPγS in place of GTP
[7] = target: T1, WT rat cPEPCK; assay: Assay A: OAA+GTP→PEP+CO2+GDP, coupled PK/LDH assay; format: biochemical
[8] = target: T2, A467G PEPCK (rat cPEPCK mutant); assay: Assay D: OAA+GDP→pyruvate+GDP+CO2; format: biochemical
[9] = target: T2, A467G PEPCK (rat cPEPCK mutant); assay: Assay A: OAA+GTP→PEP+CO2+GDP, coupled PK/LDH assay; format: biochemical
[10] = substrate: O=C(O)CC(=O)C(=O)O; assay: purified protein, by the assay type; format: biochemical, rat; conditions: OAA + GDP → Pyruvate + GDP + CO2, 25 °C
[11] = WT PEPCK, slow substrate GTPγS in place of GTP, OAA→PEP

Ki ([1]; Wild-type, assay A, against OAA, competitive (slope) Ki, 25 °C): 26 ± 1 µM
change in affinity, A467G vs WT [2]: factor of approximately two
Molecule: O=C(O)C(=O)CS(=O)(=O)O [βSP, 3-sulfopyruvate]

Km ([3]; A467G, PEP + CO2 + GDP → OAA + GTP, 25 °C, labelled substrate varied): 814 ± 98 µM
Km ([4]; labelled substrate varied): 1190 ± 109 µM
Molecule: O=C=O [CO2]

Molecule: CC(=O)C(=O)O [pyruvate]
Ki [5]: 9000 µM

Ki ([1]; Wild-type, assay B, against PEP, 25 °C): 2530 ± 13 µM
change in affinity, A467G vs WT [2]: increases by less than a factor of two
Molecule: O=C(O)COP(=O)(O)O [PGA, 2-phosphoglycolate]

pyruvate formation during the OAA→PEP reaction [6]: did not observe any pyrvuate formation
Km [7, 11]: 39 µM
kcat [7, 11]: 13 s⁻¹
Molecule: Nc1nc2c(ncn2[C@@H]2O[C@H](COP(=O)(O)OP(=O)(O)OP(O)(O)=S)[C@@H](O)[C@H]2O)c(=O)[nH]1 [GTPγS, guanosine 5′-O-[gamma-thio]triphosphate]

efficiency of WT relative to A467G at catalyzing decarboxylation of OAA [8]: 20 fold
kcat/KM of A467G as % of WT ([9]; assay A, OAA→PEP): 1.9% and 2%
KM of A467G relative to WT ([9]; assay A, OAA→PEP, higher in A467G): 14 fold
Molecule: O=C(O)CC(=O)C(=O)O [OAA, oxaloacetic acid]

kcat/KM of A467G as % of WT ([3]; assay B, PEP→OAA): 3%
Molecule: Nc1nc2c(ncn2[C@@H]2O[C@H](COP(=O)(O)OP(=O)(O)O)[C@@H](O)[C@H]2O)c(=O)[nH]1 [GDP, guanosine-5′-diphosphate]

change in KM, A467G vs WT (factor) ([9]; assay A, OAA→PEP): 1.4
decrease in kcat/KM, A467G vs WT ([9]; assay A, OAA→PEP): less than a factor of three
Molecule: Nc1nc2c(ncn2[C@@H]2O[C@H](COP(=O)(O)OP(=O)(O)OP(=O)(O)O)[C@@H](O)[C@H]2O)c(=O)[nH]1 [GTP, guanosine-5′-triphosphate]

KM of A467G as % of WT ([3]; assay B, PEP→OAA): 21% and ~ 21%
reduction in catalytic efficiency of A467G relative to WT ([3]; assay B, PEP→OAA): factor of four
Molecule: C=C(OP(=O)(O)O)C(=O)O [PEP, phosphoenolpyruvate]

Ki [1]: 106 ± 6 µM
change in affinity, A467G vs WT [2]: approximately a factor of eight
loss in binding energy / decreased stabilization in A467G vs WT ([2]; from oxalate Ki, extrapolated to the enolate intermediate): ~ 5.3 kJ mol^−1
Molecule: O=C(O)C(=O)O [oxalate]

B1: WT rat cPEPCK (Rattus norvegicus) (protein)
chain: MPPQLHNGLDFSAKVIQGSLDSLPQEVRKFVEGNAQLCQPEYIHICDGSEEEYGRLLAHMQEEGVIRKLKKYDNCWLALTDPRDVARIESKTVIITQEQRDTVPIPKSGQSQLGRWMSEEDFEKAFNARFPGCMKGRTMYVIPFSMGPLGSPLAKIGIELTDSPYVVASMRIMTRMGTSVLEALGDGEFIKCLHSVGCPLPLKKPLVNNWACNPELTLIAHLPDRREIISFGSGYGGNSLLGKKCFALRIASRLAKEEGWLAEHMLILGITNPEGKKKYLAAAFPSACGKTNLAMMNPTLPGWKVECVGDDIAWMKFDAQGNLRAINPENGFFGVAPGTSVKTNPNAIKTIQKNTIFTNVAETSDGGVYWEGIDEPLAPGVTITSWKNKEWRPQDEEPCAHPNSRFCTPASQCPIIDPAWESPEGVPIEGIIFGGRRPAGVPLVYEALSWQHGVFVGAAMRSEATAAAEHKGKVIMHDPFAMRPFFGYNFGKYLAHWLSMAHRPAAKLPKIFHVNWFRKDKNGKFLWPGFGENSRVLEWMFGRIEGEDSAKLTPIGYVPKEDALNLKGLGDVNVEELFGISKEFWEKEVEEIDKYLEDQVNADLPYEIERELRALKQRISQM
kcat [4]: 19 ± 0.8 s⁻¹
Km ([10]; other: Wild-type): 117 ± 11 µM
kcat ([10]; other: Wild-type): 2.3 ± 0.1 s⁻¹
kcat/Km ([10]; other: Wild-type): 20000 M⁻¹ s⁻¹
kcat ([7]; Wild-type, OAA + GTP → PEP + GDP + CO2, 25 °C): 54 ± 0.2 s⁻¹

B2: A467G PEPCK (rat cPEPCK mutant) (Rattus norvegicus; A467G) (protein)
chain: MPPQLHNGLDFSAKVIQGSLDSLPQEVRKFVEGNAQLCQPEYIHICDGSEEEYGRLLAHMQEEGVIRKLKKYDNCWLALTDPRDVARIESKTVIITQEQRDTVPIPKSGQSQLGRWMSEEDFEKAFNARFPGCMKGRTMYVIPFSMGPLGSPLAKIGIELTDSPYVVASMRIMTRMGTSVLEALGDGEFIKCLHSVGCPLPLKKPLVNNWACNPELTLIAHLPDRREIISFGSGYGGNSLLGKKCFALRIASRLAKEEGWLAEHMLILGITNPEGKKKYLAAAFPSACGKTNLAMMNPTLPGWKVECVGDDIAWMKFDAQGNLRAINPENGFFGVAPGTSVKTNPNAIKTIQKNTIFTNVAETSDGGVYWEGIDEPLAPGVTITSWKNKEWRPQDEEPCAHPNSRFCTPASQCPIIDPAWESPEGVPIEGIIFGGRRPAGVPLVYEALSWQHGVFVGAAMRSEATAGAEHKGKVIMHDPFAMRPFFGYNFGKYLAHWLSMAHRPAAKLPKIFHVNWFRKDKNGKFLWPGFGENSRVLEWMFGRIEGEDSAKLTPIGYVPKEDALNLKGLGDVNVEELFGISKEFWEKEVEEIDKYLEDQVNADLPYEIERELRALKQRISQM
kcat ([3]; A467G, PEP + CO2 + GDP → OAA + GTP, 25 °C): 1 ± 0.1 s⁻¹
kcat ([9]; A467G, OAA + GTP → PEP + GDP + CO2, 25 °C): 14 ± 0.1 s⁻¹
Km ([10]; other: A467G): 970 ± 118 µM
kcat ([10]; other: A467G): 1.3 ± 0.1 s⁻¹
kcat/Km ([10]; other: A467G): 1000 M⁻¹ s⁻¹
